Source: patent publication US20120029016A1, “Indoles Useful in the Treatment of Inflammation” (BIOLIPOX AB, priority 2008, published 2012)

Target: T1, Recombinant human LTC4 synthase (Homo sapiens, UniProt Q16873)
T1 construct: made in house; host or cells: Pichia pastoris ('Piccia pastoralis' [sic])
T1 sequence (Q16873 1-150): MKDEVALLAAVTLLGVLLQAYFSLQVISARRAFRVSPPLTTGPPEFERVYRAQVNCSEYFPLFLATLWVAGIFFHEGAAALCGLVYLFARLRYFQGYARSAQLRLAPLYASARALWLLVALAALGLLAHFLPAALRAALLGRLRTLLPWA
Experiment: In vitro assay Method B: LTC4 synthase, LTA4 to LTC4, HTRF detection
Assay type: biochemical
Conditions: total concentration of title compound 10 μM, read-out: % inh. of LTC4 synthase
Experimental: In the assay, LTC4 synthase catalyses the reaction where the substrate LTA4 is converted to LTC4. Recombinant human LTC4 synthase is expressed in Piccia pastoralis and the purified enzyme is dissolved in 25 mM Tris-buffer pH 7.8 and stored at −20° C. The assay is performed in phosphate buffered saline (PBS) pH 7.4, supplemented with 5 mM glutathione (GSH). The assay is performed at rt in 384-well plates. Analysis of the formed LTC4 is performed using costume made homogenous time-resolved fluorescence (HTRF) detection (Cisbio).
The following is added chronologically to each well: • 1. 50 μL assay buffer, PBS with 5 mM GSH. • 2. 0.5 μL inhibitor in DMSO. • 3. 2 μl LTC4 synthase in PBS. The total protein concentration in this solution is 0.025 mg/ml. Incubation of the plate at rt for 10 min. • 4. 1-1.5 μL LTA4 (final conc. 2.5 μM). Incubation of the plate at rt for 1 min. 10 μL of the incubation mixture is analysed using HTRF detection.

Compound | inhibition at 10 µM [%]
CC(C)Oc1ccc(Oc2ccc3c(c2)c(C(=O)O)c(CC(=O)O)n3-c2ccc(OCc3ccccc3Cl)cc2)cc1 [1:3, 2-Carboxymethyl-1-[4-(2-chlorobenzyloxy)phenyl]-5-(4-isopropoxy-phenoxy)indole-3-carboxylic acid] | 95
CC(C)Oc1ccc(Oc2ccc3c(c2)c(C(=O)O)c(CC(=O)O)n3-c2ccc(OCc3ccc(Cl)c(Cl)c3)cc2)cc1 [1:4, 2-Carboxymethyl-1-[4-(3,4-dichlorobenzyloxy)phenyl]-5-(4-isopropoxyphenoxy)indole-3-carboxylic acid] | 93
CC(C)Oc1ccc(Oc2ccc3c(c2)c(C(=O)O)c(CC(=O)O)n3-c2ccc(OCc3ccc(Cl)cc3)cc2)cc1 [1:6, 2-Carboxymethyl-1-[4-(4-chlorobenzyloxy)phenyl]-5-(4-isopropoxy-phenoxy)indole-3-carboxylic acid] | 95
CC(C)Oc1ccc(Oc2ccc3c(c2)c(C(=O)O)c(CC(=O)O)n3-c2ccc(OCc3cccc(Cl)c3)cc2)cc1 [1:7, 2-Carboxymethyl-1-[4-(3-chlorobenzyloxy)phenyl]-5-(4-isopropoxy-phenoxy)indole-3-carboxylic acid] | 94
CC(C)Oc1ccc(Oc2ccc3c(c2)c(C(=O)O)c(CC(=O)O)n3-c2ccc(OCc3ccc(Cl)nc3)cc2)cc1 [1:11, 2-Carboxymethyl-1-[4-(6-chloro-3-pyridinylmethoxy)phenyl]-5-(4-isopropoxyphenoxy)indole-3-carboxylic acid] | 99
CC(C)Oc1ccc(Oc2ccc3c(c2)c(C(=O)O)c(CC(=O)O)n3-c2ccc(Oc3cccc(Cl)c3)cc2)cc1 [3:2, 2-Carboxymethyl-1-[4-(3-chlorophenoxy)phenyl]-5-(4-isopropoxy-phenoxy)indole-3-carboxylic acid] | 97
CC(C)Oc1ccc(Oc2ccc3c(c2)c(C(=O)O)c(CC(=O)O)n3-c2ccc(Oc3ccccc3Cl)cc2)cc1 [3:4, 2-Carboxymethyl-1-[4-(2-chlorophenoxy)phenyl]-5-(4-isopropoxy-phenoxy)indole-3-carboxylic acid] | 9
O=C(O)Cc1c(C(=O)O)c2cc(Oc3ccc(OC(F)(F)F)cc3)ccc2n1-c1ccc(OC2CCCC2)cc1 [4:2, 2-Carboxymethyl-1-(4-cyclopentyloxyphenyl)-5-(4-trifluoromethoxyphenoxy)indole-3-carboxylic acid] | 100
O=C(O)Cc1c(C(=O)O)c2cc(Oc3ccc(OC4CCCC4)cc3)ccc2n1-c1ccc(OC2CCCC2)cc1 [4:3, 2-Carboxymethyl-5-(4-cyclopentyloxyphenoxy)-1-(4-cyclopentyloxyphenyl)indole-3-carboxylic acid] | 97
O=C(O)Cc1c(C(=O)O)c2cc(Oc3ccc(OC4CC4)cc3)ccc2n1-c1ccc(OC2CCCC2)cc1 [4:4, 2-Carboxymethyl-1-(4-cyclopentyloxyphenyl)-5-(4-cyclopropoxyphenoxy)-indole-3-carboxylic acid] | 98
CC(C)Oc1ccc(Oc2ccc3c(c2)c(C(=O)O)c(CC(=O)O)n3-c2ccc(OC3CC4CCC3C4)cc2)cc1 (stereo not shown) [5:3, 2-Carboxymethyl-5-(4-isopropoxyphenoxy)-1-[4-(2-norbomanyloxy)-phenyl]indole-3-carboxylic acid] | 95
O=C(O)Cc1c(C(=O)O)c2cc(Oc3ccc(OC(F)(F)F)cc3)ccc2n1-c1ccc(NCc2cccnc2)cc1 [6:1, 2-Carboxymethyl-1-[4-(3-pyridinylmethylamino)phenyl]-5-(4-trifluoromethoxyphenoxy)indole-3-carboxylic acid] | 100
CCN(c1ccccc1)c1ccc(-n2c(CC(=O)O)c(C(=O)O)c3cc(Oc4ccc(OC(F)(F)F)cc4)ccc32)cc1 [6:3, 2-Carboxymethyl-1-{4-[ethyl(phenyl)amino]phenyl}-5-(4-trifluoromethoxy-phenoxy)indole-3-carboxylic acid] | 100
